Legend:
Type in all cases: biochemical
PI3K alfa = target: T1, PI3K alfa (Homo sapiens, UniProt P42336); assay: PI3 kinase assay (Kinase-Glo luminescence), PI3K alfa; settings: Enzymatic Data; read-out: PI3K alfa IC50 [umol]
T1 construct: for the p110-a subunit (with a deletion of the first 20 amino acids); His tag (C); made in house; host or cells: baculovirus; Tn5 (Trichoplusia ni) or TiniPro insect cells
Summary of the method: (§1)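 Recombinant PI3K constructs (alfa 10 nM, delta 10 nM, gamma 150 nM) with 1 μM ATP and 10 μg/mL phosphatidylinositol in Tris pH 7.5, MgCl2, NaCl, CHAPS, DTT; 60 min (alfa, delta) or 120 min (gamma) at room temperature. ATP depletion read by Kinase-Glo luminescence; IC50 from 4-parameter logistic fit over 8 concentrations.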

PI3K delta = target: T2, PI3K delta (Homo sapiens, UniProt O00329); assay: PI3 kinase assay (Kinase-Glo luminescence), PI3K delta; settings: Enzymatic Data; read-out: PI3K delta IC50 [umol]
T2 construct: for the full-length p110-d subunit are generated and fused by overlapping PCR; His tag (C); made in house; host or cells: baculovirus; Tn5 (Trichoplusia ni) or TiniPro insect cells
Summary of the method: as §1

PI3K beta = target: T3, PI3K beta (Homo sapiens, UniProt P42338); assay: PI3 kinase assay (Kinase-Glo luminescence), PI3K beta; settings: Enzymatic Data; read-out: PI3K beta IC50 [umol]
T3 construct: for the full-length p110-b subunit are generated and fused by overlapping PCR; His tag (C); made in house; host or cells: baculovirus; Tn5 (Trichoplusia ni) or TiniPro insect cells
Summary of the method: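 PI3Kβ (25 nM, BV-949) with 10 μg/mL phosphatidylinositol in Tris pH 7.5/MgCl2/NaCl/CHAPS/DTT buffer; reaction started with 1 μM ATP, 60 min at room temperature. ATP depletion read by Kinase-Glo luminescence; 8-point dilutions, IC50 by four-parameter logistic fit.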

PI3K gamma = target: T4, PI3K gamma (Homo sapiens, UniProt P48736); assay: PI3 kinase assay (Kinase-Glo luminescence), PI3K gamma; settings: Enzymatic Data; read-out: PI3K gamma IC50 [umol]
T4 construct: PI3Kγ BV-950 p110g(D144aa)-C-Term His Tag; His tag (C); made in house; host or cells: construct from the Roger Williams lab (MRC LMB) in pVL1393; baculovirus; Tn5 (Trichoplusia ni) or TiniPro insect cells
Summary of the method: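 Kinase-Glo luminescence assay with 1 μM ATP and 10 μg/mL phosphatidylinositol (final), reaction started by ATP addition. IC50 from 4-parameter logistic fit of percent inhibition at 8 compound concentrations (usually 10 down to 0.003 […]).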

T2 sequence (O00329 with tags, fused parts or gaps limits assumed): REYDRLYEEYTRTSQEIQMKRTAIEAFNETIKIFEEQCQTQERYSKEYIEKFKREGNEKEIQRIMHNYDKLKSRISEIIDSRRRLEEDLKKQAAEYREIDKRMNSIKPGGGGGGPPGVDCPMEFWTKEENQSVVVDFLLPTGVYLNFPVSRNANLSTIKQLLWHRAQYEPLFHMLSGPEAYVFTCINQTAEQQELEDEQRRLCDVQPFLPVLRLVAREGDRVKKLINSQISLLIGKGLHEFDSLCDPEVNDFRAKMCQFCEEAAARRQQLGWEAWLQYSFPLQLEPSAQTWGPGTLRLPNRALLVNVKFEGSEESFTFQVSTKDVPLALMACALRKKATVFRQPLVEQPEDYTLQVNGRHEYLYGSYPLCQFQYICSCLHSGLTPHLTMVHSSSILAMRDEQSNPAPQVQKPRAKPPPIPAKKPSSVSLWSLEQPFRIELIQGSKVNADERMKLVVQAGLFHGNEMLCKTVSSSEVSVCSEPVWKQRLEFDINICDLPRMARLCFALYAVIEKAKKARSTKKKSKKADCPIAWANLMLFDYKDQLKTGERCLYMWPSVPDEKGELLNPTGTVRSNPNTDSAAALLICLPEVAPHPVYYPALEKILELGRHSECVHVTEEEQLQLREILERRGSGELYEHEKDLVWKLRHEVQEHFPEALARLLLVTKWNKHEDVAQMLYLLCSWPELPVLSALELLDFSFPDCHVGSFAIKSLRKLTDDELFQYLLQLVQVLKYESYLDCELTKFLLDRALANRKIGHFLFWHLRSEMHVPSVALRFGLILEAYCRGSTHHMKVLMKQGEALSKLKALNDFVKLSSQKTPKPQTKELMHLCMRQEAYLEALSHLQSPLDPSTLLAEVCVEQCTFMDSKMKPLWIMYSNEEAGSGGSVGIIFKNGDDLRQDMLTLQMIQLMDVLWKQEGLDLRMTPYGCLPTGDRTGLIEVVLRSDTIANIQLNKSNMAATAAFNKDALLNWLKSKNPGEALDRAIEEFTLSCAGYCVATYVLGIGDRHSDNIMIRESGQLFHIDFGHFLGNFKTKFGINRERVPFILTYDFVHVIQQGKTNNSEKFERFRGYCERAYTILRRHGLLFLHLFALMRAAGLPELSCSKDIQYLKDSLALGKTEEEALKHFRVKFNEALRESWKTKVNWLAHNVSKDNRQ
T3 sequence (P42338 with tags, fused parts or gaps limits assumed): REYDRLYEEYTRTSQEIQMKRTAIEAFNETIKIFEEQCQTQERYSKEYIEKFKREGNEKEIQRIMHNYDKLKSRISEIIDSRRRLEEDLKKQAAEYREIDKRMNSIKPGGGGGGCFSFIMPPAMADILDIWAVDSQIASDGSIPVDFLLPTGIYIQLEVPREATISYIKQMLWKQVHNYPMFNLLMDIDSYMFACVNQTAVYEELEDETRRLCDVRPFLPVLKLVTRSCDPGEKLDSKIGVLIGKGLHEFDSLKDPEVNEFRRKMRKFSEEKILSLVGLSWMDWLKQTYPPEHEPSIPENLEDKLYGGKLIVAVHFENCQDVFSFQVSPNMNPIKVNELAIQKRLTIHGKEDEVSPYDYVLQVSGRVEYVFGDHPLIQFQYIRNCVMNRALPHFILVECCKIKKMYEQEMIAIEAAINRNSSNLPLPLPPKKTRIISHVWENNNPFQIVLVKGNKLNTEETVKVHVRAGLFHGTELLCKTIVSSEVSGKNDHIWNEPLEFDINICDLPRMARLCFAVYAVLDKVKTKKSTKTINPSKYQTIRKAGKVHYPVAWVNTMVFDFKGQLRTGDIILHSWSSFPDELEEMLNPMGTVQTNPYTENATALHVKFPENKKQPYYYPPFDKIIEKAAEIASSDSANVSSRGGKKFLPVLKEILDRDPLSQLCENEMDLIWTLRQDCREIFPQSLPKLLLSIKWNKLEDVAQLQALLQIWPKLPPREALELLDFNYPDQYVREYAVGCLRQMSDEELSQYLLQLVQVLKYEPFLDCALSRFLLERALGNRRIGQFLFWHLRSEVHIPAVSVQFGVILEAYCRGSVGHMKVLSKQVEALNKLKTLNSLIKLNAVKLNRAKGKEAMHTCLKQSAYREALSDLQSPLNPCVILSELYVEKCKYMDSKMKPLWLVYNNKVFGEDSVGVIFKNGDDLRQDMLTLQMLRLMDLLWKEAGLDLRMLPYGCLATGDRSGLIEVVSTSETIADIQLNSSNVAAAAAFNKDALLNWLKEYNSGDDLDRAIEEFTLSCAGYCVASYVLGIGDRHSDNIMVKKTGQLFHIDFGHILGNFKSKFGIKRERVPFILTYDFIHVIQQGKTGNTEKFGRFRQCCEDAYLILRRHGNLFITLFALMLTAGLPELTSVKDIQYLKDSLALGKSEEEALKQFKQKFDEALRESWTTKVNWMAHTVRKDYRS
T4 sequence (P48736 144-1102 limits assumed): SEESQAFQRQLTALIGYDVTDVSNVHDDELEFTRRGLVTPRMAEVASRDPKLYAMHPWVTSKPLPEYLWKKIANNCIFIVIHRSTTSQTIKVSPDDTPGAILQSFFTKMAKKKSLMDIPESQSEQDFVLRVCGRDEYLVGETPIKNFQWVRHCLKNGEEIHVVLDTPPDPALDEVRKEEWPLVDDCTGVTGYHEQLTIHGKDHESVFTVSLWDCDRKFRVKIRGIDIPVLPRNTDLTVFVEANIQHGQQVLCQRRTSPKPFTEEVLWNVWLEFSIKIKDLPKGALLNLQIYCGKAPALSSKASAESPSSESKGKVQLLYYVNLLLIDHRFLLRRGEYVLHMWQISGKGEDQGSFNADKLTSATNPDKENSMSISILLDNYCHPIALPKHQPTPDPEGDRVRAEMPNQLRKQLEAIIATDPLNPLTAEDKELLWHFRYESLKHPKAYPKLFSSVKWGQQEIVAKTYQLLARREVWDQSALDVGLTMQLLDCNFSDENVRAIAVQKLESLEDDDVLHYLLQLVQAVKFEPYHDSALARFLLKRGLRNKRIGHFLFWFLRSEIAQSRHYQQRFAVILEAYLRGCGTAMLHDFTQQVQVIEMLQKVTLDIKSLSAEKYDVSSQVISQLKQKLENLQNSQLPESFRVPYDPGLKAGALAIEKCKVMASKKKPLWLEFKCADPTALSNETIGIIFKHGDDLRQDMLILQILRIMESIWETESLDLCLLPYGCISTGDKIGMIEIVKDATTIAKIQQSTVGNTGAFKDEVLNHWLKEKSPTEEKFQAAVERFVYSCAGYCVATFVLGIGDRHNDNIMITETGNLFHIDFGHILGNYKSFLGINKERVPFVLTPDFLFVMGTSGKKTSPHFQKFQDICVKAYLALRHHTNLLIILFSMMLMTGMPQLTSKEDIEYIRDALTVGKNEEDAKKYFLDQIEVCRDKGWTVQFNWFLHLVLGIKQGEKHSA
T1 sequence (P42336 with tags, fused parts or gaps limits assumed): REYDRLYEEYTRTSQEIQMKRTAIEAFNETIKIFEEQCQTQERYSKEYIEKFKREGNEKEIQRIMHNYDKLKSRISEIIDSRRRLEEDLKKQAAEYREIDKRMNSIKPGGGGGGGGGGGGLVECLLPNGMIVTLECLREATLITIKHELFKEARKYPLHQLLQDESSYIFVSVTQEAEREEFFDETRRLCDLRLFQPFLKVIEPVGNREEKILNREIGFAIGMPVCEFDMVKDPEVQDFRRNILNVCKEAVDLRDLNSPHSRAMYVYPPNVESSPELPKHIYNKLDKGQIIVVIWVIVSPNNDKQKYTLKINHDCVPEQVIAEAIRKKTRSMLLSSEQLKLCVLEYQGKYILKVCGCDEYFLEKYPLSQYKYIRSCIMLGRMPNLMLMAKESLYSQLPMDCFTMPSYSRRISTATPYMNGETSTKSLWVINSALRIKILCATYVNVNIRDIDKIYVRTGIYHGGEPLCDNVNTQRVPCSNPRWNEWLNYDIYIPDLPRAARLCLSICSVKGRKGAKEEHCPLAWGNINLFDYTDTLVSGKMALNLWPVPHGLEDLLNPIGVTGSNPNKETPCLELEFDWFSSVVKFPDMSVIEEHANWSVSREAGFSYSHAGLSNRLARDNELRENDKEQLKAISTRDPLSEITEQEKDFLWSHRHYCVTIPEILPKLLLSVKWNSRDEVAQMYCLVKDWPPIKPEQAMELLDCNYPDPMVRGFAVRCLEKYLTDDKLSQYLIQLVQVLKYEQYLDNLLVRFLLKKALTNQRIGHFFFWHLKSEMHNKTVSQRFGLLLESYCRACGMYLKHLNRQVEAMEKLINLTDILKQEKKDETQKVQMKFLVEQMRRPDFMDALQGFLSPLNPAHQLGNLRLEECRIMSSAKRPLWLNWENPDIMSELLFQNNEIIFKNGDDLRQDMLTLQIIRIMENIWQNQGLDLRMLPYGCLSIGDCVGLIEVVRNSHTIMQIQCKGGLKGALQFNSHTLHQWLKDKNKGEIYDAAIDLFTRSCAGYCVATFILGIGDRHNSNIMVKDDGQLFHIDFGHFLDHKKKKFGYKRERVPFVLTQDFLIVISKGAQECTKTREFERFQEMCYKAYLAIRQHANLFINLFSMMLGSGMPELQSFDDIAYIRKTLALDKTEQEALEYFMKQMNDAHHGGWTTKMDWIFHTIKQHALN

Row | IC50 (PI3K alfa) | IC50 (PI3K delta) | IC50 (PI3K beta) | IC50 (PI3K gamma) | Compound
1 | 9 nM | 13 nM | 137 nM | 406 nM | COc1cc(-c2cnc3ccc(-c4cnc(N)c(C(F)(F)F)c4)nn23)ccc1C(=O)N1CCN(CC(=O)N2CCOCC2)CC1 [Example 119, 2-(4-{4-[6-(6-Amino-5-trifluoro-methyl-pyridin-3-yl)-imidazo [1,2-b]pyridazin-3-yl]-2-methoxy-benzoyl}-piperazin-1-yl)-1-morpholin-4-yl-ethanone]
2 | 12 nM | 38 nM | 518 nM | 938 nM | Nc1ncc(-c2ccc3ncc(-c4ccc(C(=O)N5CCN(CCN6CCOCC6)CC5)cc4)n3n2)cc1C(F)(F)F [Example 128, {4-[6-(6-Amino-5-trifluoro-methyl-pyridin-3-yl)-imidazo [1,2-b]pyridazin-3-yl]-phenyl}-[4-(2-morpholin-4-yl-ethyl)-piperazin-1-yl]-methanone]
3 | 23 nM | 384 nM | 3370 nM | 1040 nM | CC(C)C(=O)NCCCOc1ccc(-c2ccc3ncc(-c4cnc(N)c(C(F)(F)F)c4)n3n2)cc1 [Example 57, N-(3-{4-[3-(6-Amino-5-trifluoro-methyl-pyridin-3-yl)-imidazo [1,2-b]pyridazin-6-yl]-phenoxy}-propyl)-isobutyr-amide]
4 | 19 nM | 59 nM | 416 nM | 1050 nM | Nc1ncc(-c2ccc3ncc(-c4ccc(C(=O)N5CCN(Cc6cccnc6)CC5)cc4)n3n2)cc1C(F)(F)F [Example 127, {4-[6-(6-Amino-5-trifluoro-methyl-pyridin-3-yl)-imidazo [1,2-b]pyridazin-3-yl]-phenyl}-(4-pyridin-3-ylmethyl-piperazin-1-yl)-methanone]
5 | 110 nM | 72 nM | 54 nM | 1120 nM | COc1cc(-c2cnc3ccc(-c4cnc(N)c(C(F)(F)F)c4)nn23)ccc1OCCCN [Example 37, 5-{3-[4-(3-Amino-propoxy)-3-methoxy-phenyl]-imidazo[1,2-b]pyridazin-6-yl}-3-trifluoro-methyl-pyridin-2-ylamine]
6 | 5 nM | 6 nM | 71 nM | 267 nM | Nc1ncc(-c2ccc3ncc(-c4ccc(C(=O)NCCN5CCS(=O)(=O)CC5)cc4)n3n2)cc1C(F)(F)F [Example 154, 4-[6-(6-Amino-5-trifluoro-methyl-pyridin-3-yl)-imidazo [1,2-b]pyridazin-3-yl]-N-[2-(1,1-dioxo-1lambda*6*- thio-morpholin-4-yl)-ethyl]-benzamide]
7 | 3 nM | 4 nM | 42 nM | 410 nM | COc1cc(-c2cnc3ccc(-c4cnc(N)c(C(F)(F)F)c4)nn23)ccc1C(=O)N1CCN(Cc2ccccn2)CC1 [Example 116, {4-[6-(6-Amino-5-trifluoro-methyl-pyridin-3-yl)-imidazo [1,2-b]pyridazin-3-yl]-2-methoxy-phenyl}-(4-pyridin-2-ylmethyl-piperazin-1-yl)-methanone]

Further lines, the compound ahead of its results:

Row | Compound | IC50 (PI3K alfa) | IC50 (PI3K delta) | IC50 (PI3K beta) | IC50 (PI3K gamma)
8 | Nc1ncc(-c2ccc3ncc(-c4ccc(C(=O)NCCCN5CCOCC5)cc4)n3n2)cc1C(F)(F)F [Example 81, 4-[6-(6-Amino-5-trifluoromethyl-pyridin-3-yl)-imidazo [1,2-b]pyridazin-3-yl]-N-(3-morpholin-4-yl-propyl)-benzamide] | 21 nM | 13 nM | 82 nM | 638 nM
9 | C=CS(=O)(=O)c1ccc(-c2cnc3ccc(-c4cnc(N)c(C(F)(F)F)c4)nn23)cc1 [Example 104, 5-[3-(4-Ethene-sulfonyl-phenyl)-imidazo [1,2-b]pyridazin-6-yl]-3-trifluoro-methyl-pyridin-2-ylamine] | 27 nM | 21 nM | 143 nM | 1420 nM
10 | CN(C)C(=O)c1ccc(CNC(=O)c2ccc(-c3cnc4ccc(-c5cnc(N)c(C(F)(F)F)c5)nn34)cc2)cc1 [Example 83, N-(4-N-dimethylacetyl-benzyl)-4-[6-(6-amino-5-trifluoro-methyl-pyridin-3-yl)-imidazo [1,2-b]pyridazin-3-yl]-benzamide] | 27 nM | 23 nM | 166 nM | 558 nM
11 | COc1cc(-c2ccc3ncc(-c4cnc(N)c(C(F)(F)F)c4)n3n2)ccc1OCCNC(=O)C(C)C [Example 60, N-(2-{4-[3-(6-Amino-5-trifluoro-methyl-pyridin-3-yl)-imidazo [1,2-b]pyridazin-6-yl]-2-methoxy-phenoxy}-ethyl)-isobutyr-amide] | 36 nM | 223 nM | 267 nM | 159 nM
12 | COc1ccc(-c2ccc3ncc(-c4cncc(C(F)(F)F)c4)n3n2)cc1OC [Example 53, 6-(3,4-Di-methoxy-phenyl)-3-(5-trifluoro-methyl-pyridin-3-yl)-imidazo [1,2-b] pyridazine] | 275 nM | 401 nM | 1240 nM | 1080 nM
13 | Nc1ccc(-c2cnc3ccc(-c4cnc(N)c(C(F)(F)F)c4)nn23)cn1 [Example 39, 5-{3-(6-Amino-pyridin-3-yl)-imidazo [1,2-b]pyridazin-6-yl]-3-trifluoro-methyl-pyridin-2-ylamine] | 54 nM | 40 nM | 19 nM | 1290 nM
14 | Nc1ncc(-c2cnc3ccc(-c4ccc(OCCCN5CCNC5=O)cc4)nn23)cc1C(F)(F)F [Example 163, 1-(3-{4-[3-(6-Amino-5-trifluoro-methyl-pyridin-3-yl)-imidazo [1,2-b]pyridazin-6-yl]-phenoxy}-propyl)-imidazolidin-2-one] | 69 nM | 86 nM | 908 nM | 1890 nM
15 | Nc1ncc(-c2ccc3ncc(-c4ccc(C(=O)N5CCN(Cc6ccccn6)CC5)cc4)n3n2)cc1C(F)(F)F [Example 85, {4-[6-(6-Amino-5-trifluoromethyl-pyridin-3-yl)-imidazo[1,2-b]pyridazin-3-yl]-phenyl}-(4-pyridin-2-ylmethyl-piperazin-1-yl)-methanone] | 19 nM | 15 nM | 340 nM | 129 nM
16 | COc1cc(-c2cnc3ccc(-c4cnc(N)c(C(F)(F)F)c4)nn23)ccc1OCCCNC(=O)OC(C)(C)C [Example 36, (3-{4-[6-(6-Amino-5-trifluoro-methyl-pyridin-3-yl)-imidazo [1,2-b]pyridazin-3-yl]-2-methoxy-phenoxy}-propyl)-carbamic acid tert-butyl ester] | 255 nM | 328 nM | 2160 nM | 4830 nM
17 | Nc1ncc(-c2ccc3ncc(-c4ccc(C(=O)N5CCN(CCO)CC5)cc4)n3n2)cc1C(F)(F)F [Example 145] | 97 nM | 151 nM | 508 nM | 6920 nM
18 | Nc1ncc(-c2cnc3ccc(-c4ccc(OCCN5CCCC5=O)c(F)c4)nn23)cc1C(F)(F)F [Example 94, 1-(2-{4-[3-(6-Amino-5-trifluoro-methyl-pyridin-3-yl)-imidazo [1,2-b]pyridazin-6-yl]-2-fluoro-phenoxy}-ethyl)-pyrrolidin-2-one] | 62 nM | 146 nM | 441 nM | 2150 nM

Source: US20100311729A1, “Substituted imidazopyridazines and pyrrolopyrimidines as lipid kinase inhibitors” (priority 2007, published 2010)
